In PubChem BioAssay (NCI):
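Exposure lasted 48 hours, with cells grown in 96-well plates and compounds tested at five concentrations. The concentration for full growth arrest is given as TGI.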

Key:
Assay in all cases: NCI-60 cell line screen, 48 h
SF-539 CNS = tested on: SF-539 CNS
HCT-116 colon = tested on: HCT-116 colon
UO-31 renal = tested on: UO-31 renal
A549 NSCLC = tested on: A549 NSCLC
CCRF-CEM leukemia = tested on: CCRF-CEM leukemia
MDA-MB-435 = tested on: MDA-MB-435
OVCAR-5 ovarian = tested on: OVCAR-5 ovarian
T-47D breast = tested on: T-47D breast
SF-268 CNS = tested on: SF-268 CNS
MALME-3M melanoma = tested on: MALME-3M melanoma
SK-MEL-5 melanoma = tested on: SK-MEL-5 melanoma
SF-295 CNS = tested on: SF-295 CNS
SNB-19 CNS = tested on: SNB-19 CNS
DU-145 prostate = tested on: DU-145 prostate
OVCAR-4 ovarian = tested on: OVCAR-4 ovarian
SW-620 colon = tested on: SW-620 colon
MCF7 breast = tested on: MCF7 breast
IGROV1 ovarian = tested on: IGROV1 ovarian
M14 melanoma = tested on: M14 melanoma
NCI-H23 lung = tested on: NCI-H23 lung
HOP-62 NSCLC = tested on: HOP-62 NSCLC
HCT-15 colon = tested on: HCT-15 colon
UACC-62 melanoma = tested on: UACC-62 melanoma
CAKI-1 renal = tested on: CAKI-1 renal
MOLT-4 leukemia = tested on: MOLT-4 leukemia
SK-OV-3 ovarian = tested on: SK-OV-3 ovarian
COLO 205 colon = tested on: COLO 205 colon
U251 CNS = tested on: U251 CNS
SK-MEL-2 melanoma = tested on: SK-MEL-2 melanoma
HL-60(TB) leukemia = tested on: HL-60(TB) leukemia
LOX IMVI melanoma = tested on: LOX IMVI melanoma
SK-MEL-28 melanoma = tested on: SK-MEL-28 melanoma
BT-549 breast = tested on: BT-549 breast
A498 renal = tested on: A498 renal
SN12C renal = tested on: SN12C renal
KM12 colon = tested on: KM12 colon
786-0 renal = tested on: 786-0 renal
TK-10 renal = tested on: TK-10 renal
NCI-H522 lung = tested on: NCI-H522 lung
HS 578T breast = tested on: HS 578T breast
EKVX NSCLC = tested on: EKVX NSCLC
MDA-MB-231 breast = tested on: MDA-MB-231 breast
RXF 393 renal = tested on: RXF 393 renal
SNB-75 CNS = tested on: SNB-75 CNS
HT29 colon = tested on: HT29 colon
NCI/ADR-RES ovarian = tested on: NCI/ADR-RES ovarian
UACC-257 melanoma = tested on: UACC-257 melanoma
MDA-N = tested on: MDA-N
OVCAR-8 ovarian = tested on: OVCAR-8 ovarian
ACHN renal = tested on: ACHN renal
NCI-H226 lung = tested on: NCI-H226 lung
PC-3 prostate = tested on: PC-3 prostate

Measured: TGI

CNc1ccc(N)cc1C(=O)N1CCC[C@H]1CO
> 100 µM: all assays above
